Assay results from patent publication US11957728B2, “Compositions for targeting receptor for advanced glycation end-products (RAGE) in a chronic inflammatory condition” (Sami-Sabinsa Group Limited, priority 2020, dated 2024).

Legend:
RAGE = RAGE expression in pancreas of HFFD-induced diabetic rats (qRT-PCR); type: in vivo, Wistar Rats
Excerpt: (§1) Wistar Rats (150 g) were given High fat and fructose diet (HFFD) to induced type 2 diabetes (T2D). HFFD induces the development of diabetes associated with long term metabolic disorders including Fasting hyperglycemia, pre- and post-prandial hyperinsulinemia, Insulin resistance, Glucose intolerance and Dyslipidemia. Animals in HFFD show complications associated with T2D such as hepatic steatosis complicated by fibrosis, inflammation, hyperleptinemia and endothelial dysfunction. Rats were co administered with AC3 (100 mg/kg), BAP (200 μg/kg) BAP+AC3 (200 μg+100 mg/kg) BAP+AC3 (50 μg+100 mg/kg) and Metformin as positive control at 100 mg/kg along with HFFD for 90 days (Table 4). The organs were collected at the end of the experiment to evaluate the effect of the supplements on RAGE expression, oxidative stress and inflammation. […] from pancreas sample using the trizol method. […] First-strand cDNA was prepared from RNA samples using oligo dT primers and Superscript III reverse transcriptase (cDNA synthesis kit, Invitrogen™) Quantitative real-time PCR (qRT-PCR) was performed with SYBR Green I fluorescent dye using Light cycler 96 according to the manufacturer's instructions (Light Cycler® FastStart DNA Master SYBR Green I, Roche). […] The gene expression of the target gene in each test sample was determined by relative quantification using the comparative Ct (ΔΔCt) method.

IL-1β = IL-1β expression in pancreas of HFFD diabetic rats (qRT-PCR); type: in vivo, Wistar Rats; details: Diabetic 1.66 ± 0.04
Excerpt: as §1

[1] = tested on: reactive oxygen species (ROS); experiment: Oxidative stress in tissue homogenates (DCFDA fluorescence) of HFFD diabetic rats; type: in vivo, Wistar Rats; details: for Relative Fluorescence Intensity, Average: Normal 6.5, Diabetic 23.8
Excerpt: Wistar Rats (150 g) were given High fat and fructose diet (HFFD) to induced type 2 diabetes (T2D). HFFD induces the development of diabetes associated with long term metabolic disorders including Fasting hyperglycemia, pre- and post-prandial hyperinsulinemia, Insulin resistance, Glucose intolerance and Dyslipidemia. Animals in HFFD show complications associated with T2D such as hepatic steatosis complicated by fibrosis, inflammation, hyperleptinemia and endothelial dysfunction.
Rats were co administered with AC3 (100 mg/kg), BAP (200 μg/kg) BAP+AC3 (200 μg+100 mg/kg) BAP+AC3 (50 μg+100 mg/kg) and Metformin as positive control at 100 mg/kg along with HFFD for 90 days (Table 4). The organs were collected at the end of the experiment to evaluate the effect of the supplements on RAGE expression, oxidative stress and inflammation.
The level of oxidative stress in tissue was estimated by using 20,70-dichlorofluorescin diacetate (DCFDA), a fluorogenic dye that measures hydroxyl, peroxyl, and other reactive oxygen species (ROS) activity. Briefly, an aliquot of the tissue homogenates (10 μL) were mixed with 150 μL ethanol solution of DCFDA to the final concentration of 10 mM. After incubation for 30 min at room temperature in dark, the fluorescence was measured with the excitation and emission wavelengths of 488 and 520 nm. Higher the fluorescence, higher is the oxidative stress. oxidative stress is decreased in the subject, and brought about by curcuminoids. BAP, or their combination.

TNF-α = TNF-α expression in pancreas of HFFD diabetic rats (qRT-PCR); type: in vivo, Wistar Rats; details: Diabetic 1.73 ± 0.34
Excerpt: as §1

IL-6 = IL-6 expression in pancreas of HFFD diabetic rats (qRT-PCR); type: in vivo, Wistar Rats; details: Diabetic 1.60 ± 0.09
Excerpt: as §1

[2] = tested on: inflammatory marker (TNF-α, IL6, IL-1β); experiment: Inflammatory cytokine expression in pancreas of HFFD diabetic rats, overall statements; type: in vivo, Wistar Rats; details: BAP 200 ug/kg; AC3 100 mg/kg; combinations; p<0.05
Excerpt: as §1

[3] = tested on: formation of AGE (bovine serum albumin + D-Ribose); experiment: In vitro anti-glycation assay (BSA + D-Ribose, fluorescence Ex/Em 390/460 nm, 24 h); type: biochemical
Excerpt: Glycation is the non-enzymatic glycosylation reaction involving amino groups of proteins, lipids, or nucleic acids with sugar aldehyde or keto groups resulting in the formation of advanced glycosylation end-products (AGE) (Yamagishi et al. Pathologic role of dietary advanced glycation end products in cardiometabolic disorders, and therapeutic intervention, Nutrition, 32(2), 157-65 (2016)). The reactive carbonyls of sugars combine with amino groups of a protein, lipid or nucleic acid generating Schiff bases, which rearrange to Amadori products. In a series of slow reactions, the Amadori reactions, Schiff base and Maillard reactions, ultimately form AGE. Although glycation is slow in vivo, the glycation products have long-lasting effects. The effect of test substances on preventing the formation of AGE was evaluated in vitro
Anti-glycation activity was evaluated as described earlier (Sero et al. Tuning a 96-Well Microtiter Plate Fluorescence-Based Assay to Identify AGE Inhibitors in Crude Plant Extracts) Briefly, 10 μl of various sample concentrations were added to 40 μl of 25 mg/ml bovine serum albumin and 50 μl of 150 mg/ml D-Ribose in a 96 well black microplate. D-Ribose with buffer served as control. The plate containing the mixture was incubated for 24 h at 37° C. The advanced glycation product was detected by measuring the fluorescence intensity at Ex/Em of 390/460 nm by using BMG FLUOstar Optima Microplate reader.

[4] = target: DPP4 (Dipeptidyl-peptidase 4) (Homo sapiens, UniProt P27487); experiment: Inhibition of DPP4 enzyme; type: biochemical; set-up: Anti-DPP4 activity: unit of the concentration uncertain
Chain of DPP4 (Dipeptidyl-peptidase 4) (P27487 whole entry, species assumed): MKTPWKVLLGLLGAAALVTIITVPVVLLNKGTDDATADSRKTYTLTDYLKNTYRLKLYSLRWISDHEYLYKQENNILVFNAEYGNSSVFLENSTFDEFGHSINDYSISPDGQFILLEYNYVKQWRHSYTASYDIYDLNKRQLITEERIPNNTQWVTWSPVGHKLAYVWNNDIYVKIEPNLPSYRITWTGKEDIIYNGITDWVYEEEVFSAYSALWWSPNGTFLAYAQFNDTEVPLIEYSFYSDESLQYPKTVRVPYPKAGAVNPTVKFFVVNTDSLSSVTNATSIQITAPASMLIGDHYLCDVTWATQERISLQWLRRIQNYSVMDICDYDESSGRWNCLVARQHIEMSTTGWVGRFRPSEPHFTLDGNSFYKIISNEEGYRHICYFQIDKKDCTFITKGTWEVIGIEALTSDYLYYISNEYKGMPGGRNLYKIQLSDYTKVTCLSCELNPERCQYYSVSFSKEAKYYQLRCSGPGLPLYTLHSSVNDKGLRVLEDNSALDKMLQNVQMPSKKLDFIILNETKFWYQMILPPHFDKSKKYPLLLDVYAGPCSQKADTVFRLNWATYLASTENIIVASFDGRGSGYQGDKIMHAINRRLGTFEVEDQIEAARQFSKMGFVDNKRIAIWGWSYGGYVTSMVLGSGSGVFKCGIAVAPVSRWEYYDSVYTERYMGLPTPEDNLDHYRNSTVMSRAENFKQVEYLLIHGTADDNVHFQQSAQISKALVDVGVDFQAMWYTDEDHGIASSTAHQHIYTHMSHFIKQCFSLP

glycation = experiment: Anti-glycation activity of curcuminoids at 24 and 72 hrs (320/405); type: biochemical

## CCCCCCCCCCCCCCCC(=O)O[C@H]1CC[C@]2(C)[C@H]3CC=C4[C@@H]5CC(C)(C)CC[C@]5(C)CC[C@@]4(C)[C@]3(C)CC[C@H]2C1(C)C [BAP, β-amyrin palmitate]
RAGE; BAP 200 μg/kg, 90 days with HFFD, vs diabetic rats
  Effect on pancreatic RAGE expression: no effect
IL-1β; BAP 200 μg/kg
  Expression level of IL-1β (Normal = 1): 1.62 ± 0.11
[1]; BAP 200 μg/kg
  Relative Fluorescence Intensity, Average: 11.5
[1]; HFFD rats, 90 days
  Decrease of oxidative stress from the diabetic control: 2 fold
TNF-α; BAP 200 μg/kg
  Expression level of TNF-α (Normal = 1): 2.01 ± 0.31
IL-6; BAP 200 μg/kg
  Expression level of IL-6 (Normal = 1): 2.09 ± 0.08
[2]
  Reduction of inflammatory cytokine expression in pancreas (in words): not effective
[3]; BAP 1 μg/mL
  Percentage Inhibition: 0%
[3]; BAP 2 μg/mL
  Percentage Inhibition: 11.92%
[3]; BAP 4 μg/mL
  Percentage Inhibition: 9.67%
[3]; in vitro, BSA + ribose
  Inhibition of AGE formation (in words): poor inhibitor of AGE formation

## O=C(/C=C/c1ccc(O)cc1)CC(=O)/C=C/c1ccc(O)cc1 [BDMC, Bisdemethoxycurcumin]
[4]; Conc 12.5 (unit uncertain)
  Anti-DPP4 activity: 43.58
[4]; Conc 25 (unit uncertain)
  Anti-DPP4 activity: 56.07
[4]; Conc 50 (unit uncertain)
  Anti-DPP4 activity: 58.55

## COc1cc(/C=C/C(=O)CC(=O)/C=C/c2ccc(O)c(OC)c2)ccc1O [Curcumin, curcumin]
[4]; Conc 12.5 (unit uncertain)
  Anti-DPP4 activity: 14.11
[4]; Conc 25 (unit uncertain)
  Anti-DPP4 activity: 48.88
[4]; Conc 50 (unit uncertain)
  Anti-DPP4 activity: 70.29
[4]; Table 11
  Effectiveness against DPP4 (comparison in words): as effective as AC3
glycation; 24 hrs (320/405), Conc 0.3125 mg/mL
  Anti-Glycation activity: 29.67
glycation; 24 hrs (320/405), Conc 0.625 mg/mL
  Anti-Glycation activity: 35.90
glycation; 72 hrs (320/405), Conc 0.625 mg/mL
  Anti-Glycation activity: 44.42

## COc1cc(/C=C/C(O)=C/C(=O)/C=C/c2ccc(O)cc2)ccc1O [DMC, demethoxycurcumin]
[4]; Conc 12.5 (unit uncertain)
  Anti-DPP4 activity: 23.56
[4]; Conc 25 (unit uncertain)
  Anti-DPP4 activity: 39.86
[4]; Conc 50 (unit uncertain)
  Anti-DPP4 activity: 62.60

## CN(C)C(=N)N=C(N)N [Metformin]
RAGE; metformin 100 mg/kg, pancreas
  Reduction of RAGE expression: 6.9%
IL-1β; Metformin 100 mg/kg
  Expression level of IL-1β (Normal = 1): 0.89 ± 0.05
[1]; Metformin 100 mg/kg
  Relative Fluorescence Intensity, Average: 28.94
TNF-α; Metformin 100 mg/kg
  Expression level of TNF-α (Normal = 1): 0.91 ± 0.22
IL-6; Metformin 100 mg/kg
  Expression level of IL-6 (Normal = 1): 1.04 ± 0.12
